The record followed here is ChEMBL document CHEMBL1641501, “Discovery of selective irreversible inhibitors for EGFR-T790M” (Bioorg Med Chem Lett, 2011).

Active and inactive are the calls of the source. The calls are words filed in the database; no cut-off is given here.

In experiment [1] the test system is PC-9. Briefly: Antiproliferative activity against growth-resistant human PC9 cells expressing EGFR E746_A750/T790M mutant. Format: functional, cell-based.
Experiment [2] deals with PC-9. Briefly: Antiproliferative activity against EGFR-deficient human PC9 cells. The experiment is classed as functional, cell-based.
Experiment [3] can be described thus: Antiproliferative activity against mouse BA/F3 cells transfected with EGFR E746_A750/T790M mutant. The experiment is classed as functional, cell-based. The note with it: BaF3.
The nature of experiment [4]: Antiproliferative activity against mouse BA/F3 cells transfected with EGFR L858R/T790M/C797S mutant. The experiment is classed as functional, cell-based. The note with it: BaF3.
Experiment [5] addresses T1, Cytoplasmic tyrosine-protein kinase BMX (Homo sapiens) (UniProt P51813).
T1 sequence (whole entry): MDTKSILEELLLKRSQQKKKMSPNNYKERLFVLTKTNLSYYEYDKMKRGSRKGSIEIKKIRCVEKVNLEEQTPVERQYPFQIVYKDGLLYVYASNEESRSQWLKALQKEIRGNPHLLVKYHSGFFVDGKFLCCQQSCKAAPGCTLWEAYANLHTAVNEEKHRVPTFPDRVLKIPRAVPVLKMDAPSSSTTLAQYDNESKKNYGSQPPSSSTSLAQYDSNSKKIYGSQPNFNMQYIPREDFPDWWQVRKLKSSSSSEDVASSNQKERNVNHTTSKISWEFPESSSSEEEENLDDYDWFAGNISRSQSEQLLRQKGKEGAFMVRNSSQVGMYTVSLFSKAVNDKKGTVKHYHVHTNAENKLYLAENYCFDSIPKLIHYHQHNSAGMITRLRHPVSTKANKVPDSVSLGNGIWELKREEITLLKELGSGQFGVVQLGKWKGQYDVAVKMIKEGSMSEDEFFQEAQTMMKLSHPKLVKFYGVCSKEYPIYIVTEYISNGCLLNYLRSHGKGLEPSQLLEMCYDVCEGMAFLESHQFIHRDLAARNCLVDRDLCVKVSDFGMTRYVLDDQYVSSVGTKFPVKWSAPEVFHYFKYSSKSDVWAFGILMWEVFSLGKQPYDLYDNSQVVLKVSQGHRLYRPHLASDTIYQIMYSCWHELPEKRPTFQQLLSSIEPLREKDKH
In words: Inhibition of Bmx transfected with TEL fusion in mouse BA/F3 cells. Particulars: BaF3. Format: cell-based.

Experiment [6] has as its target T2, Tyrosine-protein kinase JAK3 (Homo sapiens) (UniProt P52333).
T2 sequence (whole entry): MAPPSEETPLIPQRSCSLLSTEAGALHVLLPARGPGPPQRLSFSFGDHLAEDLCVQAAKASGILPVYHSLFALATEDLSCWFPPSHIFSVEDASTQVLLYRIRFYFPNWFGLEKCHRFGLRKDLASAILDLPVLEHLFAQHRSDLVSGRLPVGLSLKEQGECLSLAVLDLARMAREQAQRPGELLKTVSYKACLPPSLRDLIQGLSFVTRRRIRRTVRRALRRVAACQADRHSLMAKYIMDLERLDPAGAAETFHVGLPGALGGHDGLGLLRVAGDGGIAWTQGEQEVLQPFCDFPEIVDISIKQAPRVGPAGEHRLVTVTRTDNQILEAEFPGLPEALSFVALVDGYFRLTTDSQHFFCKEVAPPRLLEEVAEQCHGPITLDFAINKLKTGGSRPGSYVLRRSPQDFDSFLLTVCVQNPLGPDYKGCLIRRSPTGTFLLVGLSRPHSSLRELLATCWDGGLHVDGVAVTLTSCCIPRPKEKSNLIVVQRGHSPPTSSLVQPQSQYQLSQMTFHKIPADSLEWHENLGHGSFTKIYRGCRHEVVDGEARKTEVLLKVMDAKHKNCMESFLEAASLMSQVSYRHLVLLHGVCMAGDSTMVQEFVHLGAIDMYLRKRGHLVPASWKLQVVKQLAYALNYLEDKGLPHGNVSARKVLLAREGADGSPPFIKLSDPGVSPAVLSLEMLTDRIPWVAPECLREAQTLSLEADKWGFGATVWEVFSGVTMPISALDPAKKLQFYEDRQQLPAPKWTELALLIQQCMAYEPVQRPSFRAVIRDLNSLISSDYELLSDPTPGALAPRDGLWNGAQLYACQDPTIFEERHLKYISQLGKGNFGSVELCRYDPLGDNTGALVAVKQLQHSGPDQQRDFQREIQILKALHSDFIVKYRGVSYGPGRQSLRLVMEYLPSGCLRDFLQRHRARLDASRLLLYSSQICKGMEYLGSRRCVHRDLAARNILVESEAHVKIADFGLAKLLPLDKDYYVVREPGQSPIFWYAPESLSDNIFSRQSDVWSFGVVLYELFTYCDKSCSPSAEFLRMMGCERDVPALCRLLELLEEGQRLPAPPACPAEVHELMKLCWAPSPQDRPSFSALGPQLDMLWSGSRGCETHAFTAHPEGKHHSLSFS
Briefly: Inhibition of Jak3 transfected with TEL fusion in mouse BA/F3 cells. The note with it: BaF3. The experiment is classed as cell-based.

Experiment [7] has as its target Tyrosine-protein kinase Blk (Homo sapiens) (UniProt P51451). Briefly: Inhibition of Blk transfected with TEL fusion in mouse BA/F3 cells. The experiment is classed as cell-based. Particulars: BaF3.
Experiment [8] in a line: Antiproliferative activity against mouse BA/F3 cells transfected with EGFR E746_A750_del/T790M/C797S mutant. Format: functional, cell-based. Particulars: BaF3.
Experiment [9] can be described thus: Antiproliferative activity against mouse BA/F3 cells transfected with EGFR E746_A750_del/T790M mutant. The experiment is classed as functional, cell-based. The note with it: BaF3.
Experiment [10] in a line: Antiproliferative activity against mouse BA/F3 cells transfected with EGFR L858R/T790M mutant. The note with it: BaF3. Format: functional, cell-based.

Tyrosine-protein kinase Blk (Homo sapiens), sequence (P51451 2-505 limits assumed): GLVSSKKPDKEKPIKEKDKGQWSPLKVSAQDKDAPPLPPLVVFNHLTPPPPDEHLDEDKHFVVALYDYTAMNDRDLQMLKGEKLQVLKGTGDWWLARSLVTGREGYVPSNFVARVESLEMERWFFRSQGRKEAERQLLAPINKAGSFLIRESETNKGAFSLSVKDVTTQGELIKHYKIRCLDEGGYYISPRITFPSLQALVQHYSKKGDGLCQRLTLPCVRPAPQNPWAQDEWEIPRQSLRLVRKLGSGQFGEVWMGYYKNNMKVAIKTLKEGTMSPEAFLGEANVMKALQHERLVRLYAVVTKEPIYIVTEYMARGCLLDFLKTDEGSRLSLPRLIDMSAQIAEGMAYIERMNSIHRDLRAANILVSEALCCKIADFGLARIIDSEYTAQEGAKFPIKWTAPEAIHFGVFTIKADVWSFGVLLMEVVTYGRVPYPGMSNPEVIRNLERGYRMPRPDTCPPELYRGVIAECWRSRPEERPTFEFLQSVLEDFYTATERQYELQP

Take `C=CC(=O)Nc1cccc(Oc2nc(Nc3ccc(N4CCC(O)CC4)cc3OC)ncc2Cl)c1`: the EC50 came out at 800 nM with PC-9 [1] and 200 nM with PC-9 [2].

For `C=CC(=O)Nc1cccc(Oc2nc(Nc3ccc(N4CCN(C)CC4)cc3OC)ncc2Cl)c1`, the EC50 is 14 nM with PC-9 [1]; 1290 nM in experiment [3]; greater than 3300 nM in experiment [4]; greater than 3300 nM in experiment [8]; 36 nM in the experiment on PC-9 [2]; 2 nM in [9]. For the same molecule, a half-maximal response in [10] (EC50) required 8 nM. In addition, the inhibition entry in [5], in experiment [6] and in [7] was “Active” in each case.

In the case of `C=CC(=O)Nc1ccc(Oc2ncnc3[nH]cc(-c4cccnc4)c23)cc1`, the half-maximal effective concentration (EC50) in the experiment with PC-9 [1] and with PC-9 [2] was 6000 nM throughout.

As for `C=CC(=O)Nc1cccc(Nc2nc(Nc3ccc(N4CCN(C)CC4)cc3OC)ncc2Cl)c1`, the EC50 in the experiment with PC-9 [1] stood at 20 nM; in the experiment with PC-9 [2] it was 40 nM.

As for `C=CC(=O)Nc1cccc(Oc2ncnc3[nH]cc(-c4cccnc4)c23)c1`, the EC50 in the experiment on PC-9 [1] and in the experiment with PC-9 [2] was 500 nM throughout.

`C=CC(=O)Nc1ccc(Oc2ncnc3[nH]cc(-c4cnc5ccccc5c4)c23)cc1`: the EC50 with PC-9 [1] and in the experiment with PC-9 [2] was 10000 nM throughout.

On to `C=CC(=O)Nc1cccc(Sc2nc(Nc3ccc(N4CCN(C)CC4)cc3)ncc2Cl)c1`, for which the EC50 in the experiment with PC-9 [1] was 8 nM; with PC-9 [2] it was 6 nM.

In turn, `C=CC(=O)Nc1cccc(Oc2nc(Nc3ccc(CC(=O)N4CCN(C)CC4)cc3)ncc2Cl)c1` gave an EC50 with PC-9 [1] of 50 nM.

`C=CC(=O)Nc1cc(F)cc(Oc2nc(Nc3ccc(N4CCN(C)CC4)cc3OC)ncc2Cl)c1`: in the experiment with PC-9 [1], the EC50 came out at 20 nM.

For `C=CC(=O)Nc1cccc(Oc2ccnc(Nc3ccc(N4CCN(C)CC4)cc3)n2)c1`, the EC50 in the experiment with PC-9 [1] was greater than 1000 nM; in the experiment with PC-9 [2], 80 nM.

As for `C=CC(=O)Nc1cccc(Oc2nc(Nc3ccc(C4CCCN(C)C4)cc3OC)ncc2Cl)c1` (centres undefined), the EC50 in the experiment with PC-9 [1] turned out to be 200 nM; with PC-9 [2] it was 100 nM.

Molecule `C=CC(=O)Nc1cccc(Oc2nc(Nc3ccc(F)cc3OC)ncc2Cl)c1` came in with an EC50 in the experiment on PC-9 [1] of 800 nM.

In the case of `C=CC(=O)Nc1cccc(Oc2nc(Nc3ccc(C(=O)NCCN4CCOCC4)cc3OC)ncc2Cl)c1`, in the experiment with PC-9 [1], it took 500 nM to reach a half-maximal effect (EC50).

With `C=CC(=O)Nc1cccc(Oc2nc(Nc3ccc(-c4ccncc4)cc3OC)ncc2Cl)c1`, in the experiment on PC-9 [1], a half-maximal effect (EC50) was put at 900 nM.

`C=CC(=O)Nc1cccc(Oc2nc(Nc3ccc(CN4CCN(C)CC4)cc3C(F)(F)F)ncc2Cl)c1` had an EC50 in the experiment with PC-9 [1] of 420 nM.

On to `C=CC(=O)Nc1cccc(Oc2nc(Nc3ccc(CN4CCN(C)CC4)cc3)ncc2Cl)c1`, for which the EC50 with PC-9 [1] was found to be 30 nM.

Take `C=CC(=O)Nc1cccc(Oc2ncnc3[nH]cc(-c4ccc(OC)cc4)c23)c1`: the concentration giving a half-maximal response (EC50) with PC-9 [1] and in the experiment on PC-9 [2] was 6000 nM in each case.

As to `C=CC(=O)Nc1cccc(Oc2nc(Nc3ccc(C(=O)NC4CCN(C)CC4)cc3)ncc2Cl)c1`, the EC50 with PC-9 [1] is 1000 nM; with PC-9 [2], 800 nM.

On to `C=CC(=O)N1CCCC(Nc2nc(Nc3ccc(N(C)C(=O)CC)cc3)nc3[nH]cnc23)C1` (centres undefined), for which the EC50 with PC-9 [1] was determined as 10000 nM; in the experiment with PC-9 [2], 7000 nM.

Regarding `C=CC(=O)Nc1cccc(Oc2nc(Nc3ccc(C4CCN(C)CC4)cc3OC)ncc2Cl)c1`, the EC50 was 40 nM with PC-9 [1] and 100 nM in the experiment with PC-9 [2].

Turning to `C=CC(=O)Nc1cccc(Oc2nc(Nc3ccc(N4CCN(C)CC4)cc3OC)ncc2Cl)c1F`, the EC50 in the experiment with PC-9 [1] is 31 nM.

Turning to `C=CC(=O)Nc1cccc(Oc2nc(Nc3ccc(N4CCOCC4)cc3OC)ncc2Cl)c1`, a half-maximal response in the experiment on PC-9 [1] (EC50) required 150 nM.

`C=CC(=O)Nc1cccc(Oc2nc(Nc3ccc(N4CCN(C)CC4)cc3C(F)(F)F)ncc2Cl)c1` displayed an EC50 in the experiment with PC-9 [1] of 90 nM. Compared with the last molecule, the EC50 is about 1.7-fold lower.

For `C=CC(=O)Nc1cccc(Oc2nc(Nc3ccc(C(=O)N4CCN(C)CC4)cc3OC)ncc2Cl)c1`, the EC50 with PC-9 [1] and in the experiment with PC-9 [2] was greater than 1000 nM in each case.

On to `C=CC(=O)Nc1cccc(Oc2nc(Nc3ccc(N4CCN(C)CC4)cc3)ncc2C(F)(F)F)c1`, for which the EC50 in the experiment on PC-9 [1] came to 800 nM; with PC-9 [2], 700 nM.

In the case of `C=CC(=O)Nc1cccc(Oc2nc(Nc3ccc(N4CCN(C)CC4)cc3)ncc2Br)c1`, the EC50 in the experiment on PC-9 [1] stood at 900 nM; with PC-9 [2], 800 nM.

For the molecule `C=CC(=O)Nc1cccc(Oc2[nH]cnc3ncc(-c4cnc5ccccc5c4)c2-3)c1`, the EC50 came to 8000 nM in the experiment with PC-9 [1] and 6000 nM in the experiment with PC-9 [2].

Consider `C=CC(=O)Nc1cccc(Oc2nc(Nc3ccc(N4CCC(N5CCN(C)CC5)CC4)cc3OC)ncc2Cl)c1`, for which the EC50 was 100 nM in the experiment with PC-9 [1] and 80 nM with PC-9 [2].

Take `C=CC(=O)Nc1cccc(Sc2nc(Nc3ccc(N4CCN(C)CC4)cc3OC)ncc2Cl)c1`: the EC50 in the experiment on PC-9 [1] and in the experiment on PC-9 [2] was 20 nM in each case.

For `C=CC(=O)Nc1cccc(Oc2nc(Nc3ccc(N4CCN(C)CC4)cc3)nc3[nH]cnc23)c1`, the EC50 in the experiment with PC-9 [1] amounted to 600 nM; in the experiment with PC-9 [2], 300 nM.

As to `C=CC(=O)N1CCCC(Nc2nc(Nc3ccc(C(=O)N4CCN(C)CC4)cc3)nc3[nH]cnc23)C1` (centres undefined), the EC50 in the experiment with PC-9 [1] and with PC-9 [2] was 10000 nM each time.

In the case of `C=CC(=O)Nc1cccc(Oc2nc(Nc3ccc(C4=CCN(C)CC4)cc3OC)ncc2Cl)c1`, the EC50 in the experiment on PC-9 [1] was 200 nM.

Consider `C=CC(=O)Nc1cccc(Oc2nc(Nc3ccc(N4CCN(C)CC4)cc3OC)ncc2Cl)c1Cl`, for which the EC50 in the experiment on PC-9 [1] and in the experiment on PC-9 [2] was greater than 1000 nM throughout.

As for `C=CC(=O)Nc1cccc(Oc2nc(Nc3ccc(C(=O)N4CCN(C)CC4)cc3)ncc2Cl)c1`, the EC50 in the experiment with PC-9 [1] and in the experiment on PC-9 [2] was 800 nM each time.

Consider `C=CC(=O)Nc1cccc(Oc2nc(Nc3ccc(CCN4CCN(C)CC4)cc3)ncc2Cl)c1`, for which the midpoint of the response in the experiment with PC-9 [1], the EC50, lay at 8 nM.

Regarding `C=CC(=O)N1CCCC(N(C)c2nc(Nc3ccc(N(C)C(=O)CC)cc3)nc3[nH]cnc23)C1` (centres undefined), the EC50 turned out to be 6000 nM with PC-9 [1] and 900 nM in the experiment with PC-9 [2].

On to `C=CC(=O)N1CCCC(Nc2nc(Nc3ccc(N4CCN(C)CC4)cc3)nc3[nH]cnc23)C1` (centres undefined), for which the EC50 turned out to be 5000 nM with PC-9 [1] and 1000 nM in the experiment with PC-9 [2].

Turning to `C=CC(=O)Nc1cccc(Oc2nc(Nc3ccc(N4CCN(C)CC4)cc3)ncc2Cl)c1`, the EC50 with PC-9 [1] is 3 nM; with PC-9 [2] it was 15 nM.

`C=CC(=O)Nc1cccc(Oc2nc(Nc3ccc(C(=O)NC4CCN(C)CC4)cc3OC)ncc2Cl)c1`: the EC50 with PC-9 [1] was 800 nM; with PC-9 [2], 500 nM.
